Experimental data from PubChem BioAssay AID330 (DTP/NCI, 2004).
Values joined by “and” are separate entries in the source; they are usually repeats but may differ in a detail not shown here. Identical values can stand only once. Inconclusive results and toxic doses are left out.

System: P388 leukemia ip, CD2F1 mice, survival T/C
Test: NCI In Vivo Anticancer Drug Screen. Data for tumor model P388 Leukemia (intraperitoneal) in CD2F1 (CDF1) mice
Settings: endpoint: median survival time, higher = longer survival
How it was run: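 Mice carrying the transplanted tumor received test compound or vehicle. Survival was recorded in each group, and the value is the treated-group measurement divided by that of the vehicle-treated control group.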

[1] = dose: 50.0 mg/kg/injection, schedule: Q01DX009 (ip), vehicle: Klucel (hydroxypropylcellulose) (HPC)
[2] = dose: 100.0 mg/kg/injection, schedule: Q01DX009 (ip), vehicle: Klucel (hydroxypropylcellulose) (HPC)
[3] = dose: 200.0 mg/kg/injection, schedule: Q01DX009 (ip), vehicle: Klucel (hydroxypropylcellulose) (HPC)
[4] = dose: 50.0 mg/kg/injection, schedule: Q01DX009 (ip), vehicle: saline
[5] = dose: 100.0 mg/kg/injection, schedule: Q01DX001 (ip), vehicle: Klucel (hydroxypropylcellulose) (HPC)
[6] = dose: 200.0 mg/kg/injection, schedule: Q01DX001 (ip), vehicle: Klucel (hydroxypropylcellulose) (HPC)
[7] = dose: 400.0 mg/kg/injection, schedule: Q01DX001 (ip), vehicle: Klucel (hydroxypropylcellulose) (HPC)

For `CCOc1c(N=Nc2ccccc2Cl)c(-c2ccccc2)nn1C(N)=S`, the T/C (dose: 50.0 mg/kg/injection, schedule: Q01DX005 (ip), vehicle: saline with Tween-80) was 94 % of control, the T/C (dose: 100.0 mg/kg/injection, schedule: Q01DX005 (ip), vehicle: saline with Tween-80) was 90 % of control and the T/C (dose: 200.0 mg/kg/injection, schedule: Q01DX005 (ip), vehicle: saline with Tween-80) was 102 % of control.

With `O=C(c1ccc(Cl)cc1)n1c(Cl)c(/C=N\Nc2ccc([N+](=O)[O-])cc2)c2ccccc21` the T/C (dose: 100.0 mg/kg/injection, schedule: Q04DX003 (ip), vehicle: saline with Tween-80) was 94 % of control, the T/C (dose: 200.0 mg/kg/injection, schedule: Q04DX003 (ip), vehicle: saline with Tween-80) was 97 % of control and the T/C (dose: 400.0 mg/kg/injection, schedule: Q04DX003 (ip), vehicle: saline with Tween-80) was 92 % of control.

With `COc1ccc(/C(C)=N/[O-])cc1CS[n+]1ccccc1` the T/C (dose: 50.0 mg/kg/injection, schedule: Q01DX005 (ip), vehicle: distilled water + Tween-80 + alcohol) was 104 % of control, the T/C (dose: 100.0 mg/kg/injection, schedule: Q01DX005 (ip), vehicle: distilled water + Tween-80 + alcohol) was 95 % of control and the T/C (dose: 200.0 mg/kg/injection, schedule: Q01DX005 (ip), vehicle: distilled water + Tween-80 + alcohol) was 104 % of control.

In the case of `C[n+]1ccc(/C(C#N)=N/O)cc1`, the T/C [1] is reported as 119 % of control, the T/C [2] is reported as 110 % of control and the T/C [3] is reported as 109 % of control.

`CCOc1ccc(C(C)c2cc3c(cc2OC)OCO3)c(C)c1` (stereo unspecified) was tested, and the T/C (dose: 50.0 mg/kg/injection, schedule: Q01DX005 (ip), vehicle: Klucel (hydroxypropylcellulose) (HPC)) was 103 % of control, the T/C (dose: 100.0 mg/kg/injection, schedule: Q01DX005 (ip), vehicle: Klucel (hydroxypropylcellulose) (HPC)) was 106 % of control and the T/C (dose: 200.0 mg/kg/injection, schedule: Q01DX005 (ip), vehicle: Klucel (hydroxypropylcellulose) (HPC)) was 106 % of control.

For `C1CC(CCC2CCNCC2)CCN1`, the T/C (dose: 25.0 mg/kg/injection, schedule: Q01DX009 (ip), vehicle: saline) was 96 % of control and the T/C [4] was 97 % of control.

In the case of `CCCCNCCC(O)c1cc2ccc(C(F)(F)F)cc2c2cc(C(F)(F)F)ccc12` (stereo unspecified), the T/C (dose: 50.0 mg/kg/injection, schedule: Q01DX009 (ip), vehicle: saline with Tween-80) is reported as 86 % of control and the T/C (dose: 100.0 mg/kg/injection, schedule: Q01DX009 (ip), vehicle: saline with Tween-80) is reported as 91 % of control.

`O=C1CC2OC3C(C2O1)N(C(=O)OCc1ccccc1)C[C@H]3O` (stereo partly specified) was tested, and the T/C (dose: 60.0 mg/kg/injection, schedule: Q01DX005 (ip), vehicle: saline) was 106 % of control, the T/C (dose: 120.0 mg/kg/injection, schedule: Q01DX005 (ip), vehicle: saline) was 98 % of control and the T/C (dose: 240.0 mg/kg/injection, schedule: Q01DX005 (ip), vehicle: saline) was 105 % of control.

For `O=C1C(N=Nc2cc(Cl)ccc2Cl)C(O)N(c2ccccc2)C(=S)N1c1cccc(Cl)c1Cl` (stereo unspecified), the T/C [5] was 98 % of control, the T/C [6] was 97 % of control and the T/C [7] was 92 % of control.

`CN1CCC(C(c2ccccc2)c2ccccc2)C1` (stereo unspecified) was tested, and the T/C (dose: 12.5 mg/kg/injection, schedule: Q01DX009 (ip), vehicle: Klucel (hydroxypropylcellulose) (HPC)) was 100 % of control, the T/C (dose: 25.0 mg/kg/injection, schedule: Q01DX009 (ip), vehicle: Klucel (hydroxypropylcellulose) (HPC)) was 102 % of control and the T/C [1] was 105 % of control.

`COc1cccc(/C=C2\CCc3ccccc3C2=O)c1` was tested, and the T/C [1] was 100 % of control, the T/C [2] was 99 % of control and the T/C [3] was 106 % of control.

With `CNC(=O)OCc1c(COC(=O)NC)c(-c2ccc(C(C)(C)C)cc2)n(C)c1C` the T/C (dose: 6.25 mg/kg/injection, schedule: Q01DX009 (ip), vehicle: distilled water + Tween-80) was 150 % of control and 152 % of control, the T/C (dose: 12.5 mg/kg/injection, schedule: Q01DX009 (ip), vehicle: distilled water + Tween-80) was 155 % of control and the T/C (dose: 25.0 mg/kg/injection, schedule: Q01DX009 (ip), vehicle: distilled water + Tween-80) was 150 % of control and 158 % of control. For the same compound, the T/C (dose: 50.0 mg/kg/injection, schedule: Q01DX009 (ip), vehicle: distilled water + Tween-80) was 97 % of control.

For `O=C(O)C1(Cc2ccccc2)C(=O)C=Cc2ccccc21` (stereo unspecified), the T/C [5] was 101 % of control, the T/C [6] was 101 % of control and the T/C [7] was 97 % of control.

`CCCCCCCC(=O)C(=O)c1ccc(O)cc1O` was tested, and the T/C [1] was 109 % of control, the T/C [2] was 112 % of control and the T/C [3] was 113 % of control.

With `C(=C=C(c1ccccc1)c1ccccc1)=C(c1ccccc1)c1ccccc1` the T/C [4] was 101 % of control, the T/C (dose: 100.0 mg/kg/injection, schedule: Q01DX009 (ip), vehicle: saline) was 93 % of control and the T/C (dose: 200.0 mg/kg/injection, schedule: Q01DX009 (ip), vehicle: saline) was 92 % of control.

In the case of `OCC1OC(N(O)c2ccc(Oc3c(Cl)cc(Cl)cc3Cl)cc2)C(O)C(O)C1O` (stereo unspecified), the T/C (dose: 60.0 mg/kg/injection, schedule: Q01DX005 (ip), vehicle: Klucel (hydroxypropylcellulose) (HPC)) is reported as 100 % of control and the T/C (dose: 120.0 mg/kg/injection, schedule: Q01DX005 (ip), vehicle: Klucel (hydroxypropylcellulose) (HPC)) is reported as 100 % of control.
